Patent publication US10669289B2, “Boronic acid derivatives” (MERCK PATENT GMBH, priority 2014, dated 2020)

What was measured:
[1] = target: human constitutive proteasome (Beta5) (Homo sapiens (Human), UniProt P28074); assay: Determination of Beta5 activity (fluorescence intensity assay, Suc-LLVY-AMC); assay type: biochemical
Procedure, shortened: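 Purified human constitutive proteasome (1.25 nM) preincubated with compounds (30 μM–15 pM) for 20 min (default) or 120 min at 25 °C in 50 mM Tris pH 7.4, 0.03% SDS, 1 mM EDTA, 1% DMSO. Suc-LLVY-AMC substrate at 40 μM, 60 min at 37 °C. Fluorescence read at ex 350/em 450 nm.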

[2] = target: human immuno proteasome (LMP7) (Homo sapiens (Human), UniProt P28062); assay: Determination of LMP7 activity (fluorescence intensity assay, Suc-LLVY-AMC); assay type: biochemical
Procedure, shortened: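 Fluorogenic Suc-LLVY-AMC cleavage (40 μM substrate, 60 min, 37° C., ex 350/em 450 nm) measured after 0.25 nM human immunoproteasome was exposed to compound at 30 μM–15 pM. Preincubation was 20 min by default or 120 min (long) at 25° C., in Tris pH 7.4 with 0.03% SDS, 1 mM EDTA and 1% DMSO.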

[3] = LMP7 versus Beta5, long incubation (120 min)

SMILES	IC50 ([1]; long incubation (120 min))	Selectivity LMP7 vs Beta5 [2, 3]	IC50 ([2]; long incubation (120 min))	IC50 ([1]; incubation for 20 minutes)	Selectivity LMP7 vs Beta5 ([2]; LMP7 versus Beta5, incubation for 20 minutes)	IC50 ([2]; incubation for 20 minutes)
C=CC(=O)N(CC(=O)N[C@@H](Cc1ccc(C)c(C)c1)B(O)O)CC(F)(F)F [Compound No. 61, [(1R)-2-(3,4-dimethylphenyl)-1-[[2-[prop-2-enoyl(2,2,2-trifluoroethyl)amino]acetyl]amino]ethyl]boronic Acid]	> 5 µM	+++++ (Selectivity ≥ 150)	< 0.05 µM			
C=CC(=O)N(C)CC(=O)N[C@@H](Cc1ccc(Cl)c(Cl)c1)B(O)O [Compound No. 66, [(1R)-2-(3,4-dichlorophenyl)-1-[[2-[methyl(prop-2-enoyl)amino]acetyl]amino]ethyl]boronic Acid]	> 5 µM	+++++ (Selectivity ≥ 150)	< 0.05 µM			
C=CC(=O)N(CC(=O)N[C@@H](Cc1ccc(C)c(C)c1)B(O)O)C1CC1 [Compound No. 71, [(1R)-1-[[2-[cyclopropyl(prop-2-enoyl)amino]acetyl]amino]-2-(3,4-dimethylphenyl)ethyl]boronic Acid]	> 5 µM	+++++ (Selectivity ≥ 150)	< 0.05 µM			
C=CC(=O)N(C)CC(=O)N[C@@H](Cc1ccc(C)cc1C)B(O)O [Compound No. 33, [(1R)-2-(2,4-dimethylphenyl)-1-[[2-[methyl(prop-2-enoyl)amino]-acetyl]amino]ethyl]boronic Acid]				> 5 µM	+++++ (Selectivity ≥ 150)	< 0.05 µM

Continued, values first:

IC50 ([1]; long incubation (120 min))	Selectivity LMP7 vs Beta5 [2, 3]	IC50 ([2]; long incubation (120 min))	IC50 ([1]; incubation for 20 minutes)	Selectivity LMP7 vs Beta5 ([2]; LMP7 versus Beta5, incubation for 20 minutes)	IC50 ([2]; incubation for 20 minutes)	SMILES
> 5 µM	+++++ (Selectivity ≥ 150)	0.05 to 0.5 µM				C=CC(=O)N(CC)CC(=O)N[C@@H](Cc1ccc(C(F)(F)F)cc1C)B(O)O [Compound No. 64, [(1R)-1-[[2-[ethyl(prop-2-enoyl)amino]acetyl]amino]-2-[2-methyl-4-(trifluoromethyl)phenyl]ethyl]boronic Acid]
> 5 µM	+++++ (Selectivity ≥ 150)	0.05 to 0.5 µM				C=CC(=O)N(CC)CC(=O)N[C@@H](Cc1cccc2ccccc12)B(O)O [Compound No. 79, [(1R)-1-[[2-[ethyl(prop-2-enoyl)amino]acetyl]amino]-2-(1-naphthyl)ethyl]boronic Acid]
> 5 µM	+++++ (Selectivity ≥ 150)	< 0.05 µM				C=CC(=O)N(CC)CC(=O)N[C@@H](Cc1ccc(Cl)c(Cl)c1)B(O)O [Compound No. 65, [(1R)-2-(3,4-dichlorophenyl)-1-[[2-[ethyl(prop-2-enoyl)amino]acetyl]amino]ethyl]boronic Acid]
> 5 µM	+++++ (Selectivity ≥ 150)	< 0.05 µM				C=CC(=O)N(CC#N)CC(=O)N[C@@H](Cc1ccc(C)cc1C)B(O)O [Compound No. 56, [(1R)-1-[[2-[cyanomethyl(prop-2-enoyl)amino]acetyl]-amino]-2-(2,4-dimethylphenyl)ethyl]boronic Acid]
